By DC50 is commonly meant the concentration giving 50% degradation. Lower therefore signals degradation at low concentration. The Dmax is the greatest extent of degradation seen. A low value points to shallow degradation.

This experiment deals with T1, Androgen Receptor (AR) (Homo sapiens, UniProt P10275).
T1 construct: endogenous in cells; host or cells: VCaP
T1 sequence (P10275 1-920): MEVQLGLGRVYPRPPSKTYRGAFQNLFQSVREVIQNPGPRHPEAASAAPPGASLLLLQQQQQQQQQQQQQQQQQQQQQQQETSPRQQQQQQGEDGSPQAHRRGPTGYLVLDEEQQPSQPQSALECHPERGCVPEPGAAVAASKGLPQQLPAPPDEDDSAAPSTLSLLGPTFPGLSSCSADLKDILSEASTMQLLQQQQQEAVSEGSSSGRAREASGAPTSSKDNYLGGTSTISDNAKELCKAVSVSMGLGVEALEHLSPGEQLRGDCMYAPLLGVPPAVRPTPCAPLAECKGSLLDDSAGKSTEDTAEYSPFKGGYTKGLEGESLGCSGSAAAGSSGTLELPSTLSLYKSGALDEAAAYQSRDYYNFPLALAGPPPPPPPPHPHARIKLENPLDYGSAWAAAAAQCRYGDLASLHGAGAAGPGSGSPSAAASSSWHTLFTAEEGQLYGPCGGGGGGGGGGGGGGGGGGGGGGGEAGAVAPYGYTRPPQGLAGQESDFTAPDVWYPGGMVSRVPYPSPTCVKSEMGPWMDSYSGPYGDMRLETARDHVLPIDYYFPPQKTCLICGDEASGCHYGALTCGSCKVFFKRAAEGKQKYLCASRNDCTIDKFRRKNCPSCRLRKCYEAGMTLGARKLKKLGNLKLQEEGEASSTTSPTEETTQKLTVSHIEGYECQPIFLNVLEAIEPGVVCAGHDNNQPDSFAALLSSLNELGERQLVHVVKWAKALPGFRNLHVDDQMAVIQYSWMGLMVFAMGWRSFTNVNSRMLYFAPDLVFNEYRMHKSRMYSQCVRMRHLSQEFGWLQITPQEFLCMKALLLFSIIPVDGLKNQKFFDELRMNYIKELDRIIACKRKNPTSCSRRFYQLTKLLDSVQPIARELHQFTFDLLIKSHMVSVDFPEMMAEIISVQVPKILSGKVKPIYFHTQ
The experiment can be described thus: AR immunofluorescence staining, high content imager, VCaP cells. Type of experiment: cell-based. Particulars: for DC50: AR degradation by immunofluorescence; for Dmax: maximal AR degradation. Here is the method: AR Immunofluorescence Staining of Cells for the High Content Imager was performed as follows: Following treatment of the cells with compound (using the central 60 wells of a 96-well plate), media was removed by aspiration, followed by addition of 50 μL per well of 4% paraformaldehyde (PFA) in PBS supplemented with 2 mM MgCl2 and 2 mM CaCl2. Fixed cells were incubated at RT for 15 minutes. For particularly low adherence cell lines (e.g., VCaP), a 2× solution of 8% PFA was added directly to wells instead. Cells were washed once with 200 μL PBS/well. To permeabilize cells 50 μL/well of 0.1% Triton X-100 in PBS was added and incubated for 5 minutes. Cells were washed once with 200 μL PBSS/well. 100 μL/well of Licor Odyssey Blocking Buffer was added for 1 hour at 20° C. Wells were aspirated and AR antibody (1:1000 in Licor Odyssey blocking buffer; 50 μL/well; CST 5153s) was added. Plates were incubated overnight at 4° C. Plates were washed 3 times with 200 EL PBS/well. The appropriate secondary antibody was added (50 μL/well; diluted in Licor Odyssey blocking buffer) and incubated for 1 hour at RT in the dark as prepared below using Anti-rabbit FITC (1:5000; […]) and Phalloidin-Alexafluor 648 (1:500; […]). Cells were washed once with 200 μL PBS/well. 50 μL DAPI or Hoechst 33342 diluted 1:1000 in Licor Odyssey blocking buffer was added to the wells. Cells were washed 3 times with 200 μL PBS/well. The plates were covered with a clear plastic sealer and refrigerated in the dark until ready to analyze. The cells were analyzed using a Molecular Devices IXM high content imager and analyzed using Molecular Devices metaXpress software suite.

In turn, `COc1cc(O[C@H]2C(C)(C)[C@H](NC(=O)c3ccc(N4CCC(CN5CCN(c6ccc(C(=O)N[C@H]7CCC(=O)NC7=O)cn6)CC5)CC4)cc3)C2(C)C)ccc1C#N` [Compound 42, N-[(3S)-2,6-dioxopiperidin-3-yl]-6-(4-{[1-(4-{[(1r,3r)-3-(4-cyano-3-methoxyphenoxy)-2,2,4,4-tetramethylcyclobutyl]carbamoyl}phenyl)piperidin-4-yl]methyl}piperazin-1-yl)pyridine-3-carboxamide] had a 50% degradation concentration (DC50) below 1 nM and a Dmax of at least 70%.

Take `COc1cc(O[C@H]2C(C)(C)[C@H](NC(=O)c3ccc(N4CCO[C@H](CN(C(C)C)[C@H]5C[C@@H](Oc6ccc(C(=O)N[C@H]7CCC(=O)NC7=O)c(F)c6)C5)C4)cc3)C2(C)C)ccc1C#N` [Compound 43, 4-[(2R)-2-([isopropyl[(1r,3r)-3-(4-[[(3S)-2,6-dioxopiperidin-3-yl]carbamoyl]-3-fluorophenoxy)cyclobutyl]amino]methyl)morpholin-4-yl]-N-[(1r,3r)-3-(4-cyano-3-methoxyphenoxy)-2,2,4,4-tetramethylcyclobutyl]benzamide]: the DC50 was below 1 nM and the Dmax was at least 70%.

`COc1cc(O[C@H]2C(C)(C)[C@H](NC(=O)c3ccc(N4CCO[C@@H](CN(C(C)C)[C@H]5C[C@H](Oc6ccc(C(=O)N[C@H]7CCC(=O)NC7=O)c(F)c6)C5)C4)cc3)C2(C)C)ccc1C#N` [Compound 44, 4-[(2S)-2-([isopropyl[(1R,3R)-3-(4-[[(3S)-2,6-dioxopiperidin-3-yl]carbamoyl]-3-fluorophenoxy)cyclobutyl]amino]methyl)morpholin-4-yl]-N-[(1R,3R)-3-(4-cyano-3-methoxyphenoxy)-2,2,4,4-tetramethylcyclobutyl]benzamide]: the DC50 was below 1 nM and the Dmax was at least 70%.

In the case of `COCCN(C[C@@H]1CN(c2ccc(C(=O)N[C@H]3C(C)(C)[C@H](Oc4cc(C)c(C#N)c(C)c4)C3(C)C)cc2)CCO1)[C@H]1C[C@@H](Oc2ccc(C(=O)N[C@H]3CCC(=O)NC3=O)c(F)c2)C1` [Compound 45, 4-[(2R)-2-{[(2-methoxyethyl)[(1r,3r)-3-(4-{[(3S)-2,6-dioxopiperidin-3-yl]carbamoyl}-3-fluorophenoxy)cyclobutyl]amino]methyl}morpholin-4-yl]-N-[(1r,3r)-3-(4-cyano-3,5-dimethylphenoxy)-2,2,4,4-tetramethylcyclobutyl]benzamide], the DC50 is below 1 nM and the Dmax is at least 70%.

In turn, `Cc1cc(O[C@H]2C(C)(C)[C@H](NC(=O)c3ccc(N4CCC(CN5CCN(c6ccc(C(=O)N[C@H]7CCC(=O)NC7=O)cn6)CC5)CC4)cc3)C2(C)C)cc(C)c1C#N` [Compound 46] returned a DC50 below 1 nM and a Dmax of at least 70%.

Take `Cc1cc(O[C@H]2C(C)(C)[C@H](NC(=O)c3ccc(N4CCO[C@H](CN(C(C)C)[C@H]5C[C@@H](Oc6ccc(C(=O)N[C@H]7CCC(=O)NC7=O)c(F)c6)C5)C4)cc3)C2(C)C)cc(C)c1C#N` [Compound 47, 4-[(2R)-2-{[(propan-2-yl)[(1r,3r)-3-(4-{[(3S)-2,6-dioxopiperidin-3-yl]carbamoyl}-3-fluorophenoxy)cyclobutyl]amino]methyl}morpholin-4-yl]-N-[(1r,3r)-3-(4-cyano-3,5-dimethylphenoxy)-2,2,4,4-tetramethylcyclobutyl]benzamide]: the DC50 was below 1 nM and the Dmax is at least 70%.

`Cc1cc(O[C@H]2C(C)(C)[C@H](NC(=O)c3ccc(N4CCO[C@H](CN5CCN(c6ccc(C(=O)N[C@H]7CCC(=O)NC7=O)c(F)c6)CC5)C4)cc3)C2(C)C)cc(C)c1C#N` [Compound 48, N-[(3S)-2,6-dioxopiperidin-3-yl]-2-fluoro-4-(4-{[(2R)-4-(4-{[(1r,3r)-3-(4-cyano-3,5-dimethylphenoxy)-2,2,4,4-tetramethylcyclobutyl]carbamoyl}phenyl)morpholin-2-yl]methyl}piperazin-1-yl)benzamide] gave a DC50 below 1 nM and a Dmax of at least 70%.

Consider `COCCN(C[C@H]1CN(c2ccc(C(=O)N[C@H]3C(C)(C)[C@@H](Oc4ccc(C#N)c(OC)c4)C3(C)C)cc2)CCO1)[C@H]1C[C@H](Oc2ccc(C(=O)N[C@@H]3CCC(=O)NC3=O)c(F)c2)C1` [Compound 50, 4-[(2S)-2-{[(2-methoxyethyl)[(1r,3r)-3-(4-{[(3R)-2,6-dioxopiperidin-3-yl]carbamoyl}-3-fluorophenoxy)cyclobutyl]amino]methyl}morpholin-4-yl]-N-[(1r,3r)-3-(4-cyano-3-methoxyphenoxy)-2,2,4,4-tetramethylcyclobutyl]benzamide], for which the DC50 was below 1 nM and the Dmax was at least 70%.

For `COCCN(C[C@H]1CN(c2ccc(C(=O)N[C@H]3C(C)(C)[C@@H](Oc4cc(C)c(C#N)c(C)c4)C3(C)C)cc2)CCO1)[C@H]1C[C@H](Oc2ccc(C(=O)N[C@@H]3CCC(=O)NC3=O)c(F)c2)C1` [Compound 51, 4-[(2S)-2-{[(2-methoxyethyl)[(1r,3r)-3-(4-{[(3R)-2,6-dioxopiperidin-3-yl]carbamoyl}-3-fluorophenoxy)cyclobutyl]amino]methyl}morpholin-4-yl]-N-[(1r,3r)-3-(4-cyano-3,5-dimethylphenoxy)-2,2,4,4-tetramethylcyclobutyl]benzamide], the DC50 is below 1 nM and the Dmax was at least 70%.

For `Cc1cc(O[C@H]2C(C)(C)[C@H](NC(=O)c3ccc(N4CCO[C@@H](CN5CCN(c6ccc(C(=O)N[C@H]7CCC(=O)NC7=O)c(F)c6)CC5)C4)cc3)C2(C)C)cc(C)c1C#N` [Compound 52, N-[(3S)-2,6-dioxopiperidin-3-yl]-2-fluoro-4-(4-{[(2S)-4-(4-{[(1r,3r)-3-(4-cyano-3,5-dimethylphenoxy)-2,2,4,4-tetramethylcyclobutyl]carbamoyl}phenyl)morpholin-2-yl]methyl}piperazin-1-yl)benzamide], the DC50 is below 1 nM and the Dmax was at least 70%.

Compound `COc1cc(O[C@H]2C[C@H](N3CCOC4(CCN(c5ccc(C(=O)N[C@H]6C(C)(C)[C@H](Oc7cc(C)c(C#N)c(C)c7)C6(C)C)cc5)CC4)C3)C2)ccc1C(=O)NC1CCC(=O)NC1=O` (some centres unmarked) [Compound 53, N-(2,6-dioxopiperidin-3-yl)-2-methoxy-4-[(1r,3r)-3-[9-(4-{[(1r,3r)-3-(4-cyano-3,5-dimethylphenoxy)-2,2,4,4-tetramethylcyclobutyl]carbamoyl}phenyl)-1-oxa-4,9-diazaspiro[5.5]undecan-4-yl]cyclobutoxy]benzamide] showed a DC50 below 1 nM and a Dmax of at least 70%.

For `COc1cc(O[C@H]2C(C)(C)[C@H](NC(=O)c3ccc(N4CCC(O[C@H]5C[C@H](Oc6ccc(C(=O)NC7CCC(=O)NC7=O)c(OC)c6)C5)CC4)cc3)C2(C)C)ccc1C#N` (some centres unmarked) [Compound 54, N-[(1r,3r)-3-(4-cyano-3-methoxyphenoxy)-2,2,4,4-tetramethylcyclobutyl]-4-{4-[(1r,3r)-3-{4-[(2,6-dioxopiperidin-3-yl)carbamoyl]-3-methoxyphenoxy}cyclobutoxy]piperidin-1-yl}benzamide], the DC50 is below 1 nM and the Dmax was at least 70%.

For the compound `COc1cc(O[C@H]2C[C@H](OC3CCN(c4ccc(C(=O)N[C@H]5C(C)(C)[C@H](Oc6cc(C)c(C#N)c(C)c6)C5(C)C)cc4)CC3)C2)ccc1C(=O)NC1CCC(=O)NC1=O` (some centres unmarked) [Compound 55, N-(2,6-dioxopiperidin-3-yl)-2-methoxy-4-[(1r,3r)-3-{[1-(4-{[(1r,3r)-3-(4-cyano-3,5-dimethylphenoxy)-2,2,4,4-tetramethylcyclobutyl]carbamoyl}phenyl)piperidin-4-yl]oxy}cyclobutoxy]benzamide], the DC50 was below 1 nM and the Dmax was at least 70%.

Values taken from US12427144B2, “Compounds and methods for the targeted degradation of androgen receptor” (Arvinas Operations, Inc., priority 2019, dated 2025).
